Key:
CYP3A = experiment: Determination of CYP3A activity by erythromycin demethylation method (rat liver homogenate/microsomes); design: CYP3A Activity (percentage of control): dose or concentration left out as unconfirmed; conditions: for inhibitory effects on rat liver CYP3A (in words): summary of Table 1; for enhancing effects on rat hepatic CYP3A (in words): summary of Table 2
in vivo = conditions: beagle, dog, po, 10 mg/kg
[1] = inhibitor concentration 0.004, Table 1 Inhibition
[2] = inhibitor concentration 0.04, Table 1 Inhibition
[3] = inhibitor concentration 0.4, Table 1 Inhibition
[4] = inhibitor concentration 1.55, Table 1 Inhibition
[5] = inhibitor concentration 4.3, Table 1 Inhibition
[6] = inhibitor concentration 77.07, Table 1 Inhibition
[7] = inhibitor concentration 0.1, Table 1 Inhibition

| Compound | CYP3A Activity (percentage of control) (CYP3A; [1]) | CYP3A Activity (percentage of control) (CYP3A; [2]) | CYP3A Activity (percentage of control) (CYP3A; [3]) | further results |
| --- | --- | --- | --- | --- |
| Oc1cc(O)c2c(c1)O[C@H](c1ccc(O)c(O)c1)[C@@H](O)C2 (relative stereo) [(+)-catechin, 2R-trans-2-(3,4-dihydroxyphenyl)-3,4-dihydro-2H-1-benopyran-3,5,7-triol] | 59.31 ± 2.94 percentage of control | 62.70 ± 8.53 percentage of control | 45.42 ± 6.13 percentage of control | inhibitory effects on rat liver CYP3A (in words) (CYP3A): particularly effective |
| CC(=O)OCCCc1ccccc1 [3-phenylpropyl acetate] | 60.33 ± 2.18 percentage of control | 70.50 ± 0.59 percentage of control | 53.89 ± 4.43 percentage of control | – |
| Oc1cc(O)c2c(c1)O[C@@H](c1ccc(O)c(O)c1)[C@@H](O)C2 [(+)-epicatechin] | – | – | – | CYP3A Activity (percentage of control) (CYP3A; inhibitor concentration 0.45, Table 1 Inhibition): 14.66 ± 7.66 percentage of control; CYP3A Activity (percentage of control) (CYP3A; inhibitor concentration 1.41, Table 1 Inhibition): 23.29 ± 5.28 percentage of control; CYP3A Activity (percentage of control) (CYP3A; [4]): 27.96 ± 5.07 percentage of control |
| O=C(O)c1cc(O)c(O)c(O)c1 [Gallic acid] | – | – | – | CYP3A Activity (percentage of control) (CYP3A; [5]): 43.86 ± 4.45 percentage of control; CYP3A Activity (percentage of control) (CYP3A; inhibitor concentration 24.66, Table 1 Inhibition): 43.65 ± 0.57 percentage of control; CYP3A Activity (percentage of control) (CYP3A; [6]): 44.09 ± 4.39 percentage of control; inhibitory effects on rat liver CYP3A (in words) (CYP3A): particularly effective |
| CC1(C)[C@@H](O[C@H]2O[C@H](C(=O)O)[C@@H](O)[C@H](O)[C@H]2O[C@@H]2O[C@H](C(=O)O)[C@@H](O)[C@H](O)[C@H]2O)CC[C@]2(C)[C@H]3C(=O)C=C4[C@@H]5C[C@@](C)(C(=O)O)CC[C@]5(C)CC[C@@]4(C)[C@]3(C)CC[C@@H]12 [Glycyrrhizin] | – | – | – | CYP3A Activity (percentage of control) (CYP3A; inhibitor concentration 0.269, Table 1 Inhibition): 42.96 ± 3.75 percentage of control |
| CCCCCCCCCCCCO [Lauryl alcohol] | – | – | – | CYP3A Activity (percentage of control) (CYP3A; inhibitor concentration 739.88, Table 1 Inhibition): 18.58 ± 1.46 percentage of control; inhibitory effects on rat liver CYP3A (in words) (CYP3A): particularly effective |
| O=c1cc(-c2ccc(O)c(O)c2)oc2cc(O)cc(O)c12 [Luteolin] | 88.22 ± 0.00 percentage of control | 94.10 ± 10.37 percentage of control | 106.51 ± 8.16 percentage of control | CYP3A Activity (percentage of control) (CYP3A; inhibitor concentration 1.56, Table 1 Inhibition): 36.32 ± 1.26 percentage of control |
| O=C1C[C@@H](c2ccc(O)cc2)Oc2cc(O)cc(O)c21 [Nariagenin] | 81.63 ± 5.21 percentage of control | 62.37 ± 12.33 percentage of control | 60.54 ± 15.51 percentage of control | CYP3A Activity (percentage of control) (CYP3A; [4]): 47.07 ± 9.87 percentage of control |
| C[C@@H]1O[C@@H](O[C@H]2[C@H](Oc3cc(O)c4c(c3)O[C@H](c3ccc(O)cc3)CC4=O)O[C@H](CO)[C@@H](O)[C@@H]2O)[C@H](O)[C@H](O)[C@H]1O [Narigin] | – | – | – | CYP3A Activity (percentage of control) (CYP3A; inhibitor concentration 21.67, Table 1 Inhibition): 56.22 ± 22.87 percentage of control; inhibitory effects on rat liver CYP3A (in words) (CYP3A): particularly effective |
| CC(Cc1ccc(O)c(O)c1)C(C)Cc1ccc(O)c(O)c1 (stereo not drawn) [Nordihydroguaiaretic Acid] | 71.26 ± 1.95 percentage of control | 60.28 ± 1.95 percentage of control | 42.53 ± 0.49 percentage of control | CYP3A Activity (percentage of control) (CYP3A; inhibitor concentration 3.09, Table 1 Inhibition): 8.96 ± 1.79 percentage of control; inhibitory effects on rat liver CYP3A (in words) (CYP3A): particularly effective |
| CC1(C)CC[C@]2(C(=O)O)CC[C@]3(C)C(=CC[C@@H]4[C@@]5(C)CC[C@H](O)C(C)(C)[C@@H]5CC[C@]43C)[C@@H]2C1 [Oleanolic acid] | – | – | – | CYP3A Activity (percentage of control) (CYP3A; inhibitor concentration 0.522, Table 1 Inhibition): 55.95 ± 4.45 percentage of control; CYP3A Activity (percentage of control) (CYP3A; [6]): 44.64 ± 7.92 percentage of control |
| CCC(C)(C)C(=O)O[C@H]1C[C@@H](C)C=C2C=C[C@H](C)[C@H](CC[C@@H]3C[C@@H](O)CC(=O)O3)[C@H]21 [Simvastatin] | – | – | – | MRT (in vivo): 2.79 h; Tmax (in vivo): 0.75 h; half-life (in vivo): 1.47 h |
| O=c1cc(-c2ccc(O)cc2)oc2cc(O)cc(O)c12 [apigenin] | 52.96 ± 1.15 percentage of control | 54.64 ± 5.16 percentage of control | – | CYP3A Activity (percentage of control) (CYP3A; enhancer concentration 0.22, Table 2 Enhancement): 108.62 ± 1.28 percentage of control; CYP3A Activity (percentage of control) (CYP3A; [7]): 59.94 ± 2.50 percentage of control; enhancing effects on rat hepatic CYP3A (in words) (CYP3A): particularly effective |
| O=c1cc(-c2ccccc2)oc2cc(O)c(O)c(O)c12 [baicalein] | 84.66 ± 3.04 percentage of control | 81.59 ± 4.76 percentage of control | – | CYP3A Activity (percentage of control) (CYP3A; [7]): 64.47 ± 4.75 percentage of control |
| CC(C)[C@@H](C)/C=C/[C@@H](C)[C@H]1CC[C@H]2C3=CC=C4C[C@@H](O)CC[C@]4(C)[C@H]3CC[C@]12C [ergosterol] | 64.59 ± 3.34 percentage of control | 63.71 ± 11.57 percentage of control | 59.57 ± 5.41 percentage of control | – |
| COc1ccc(-c2coc3cc(O)ccc3c2=O)cc1 [formononetin] | 78.78 ± 2.76 percentage of control | 92.06 ± 0.77 percentage of control | – | CYP3A Activity (percentage of control) (CYP3A; enhancer concentration 0.123, Table 2 Enhancement): 113.74 ± 8.87 percentage of control; CYP3A Activity (percentage of control) (CYP3A; [7]): 70.37 ± 5.79 percentage of control; enhancing effects on rat hepatic CYP3A (in words) (CYP3A): particularly effective |
| COc1ccc([C@@H]2CC(=O)c3c(O)cc(O)cc3O2)cc1O [hesperetin] | 84.66 ± 3.04 percentage of control | 75.89 ± 3.31 percentage of control | 48.25 ± 4.62 percentage of control | inhibitory effects on rat liver CYP3A (in words) (CYP3A): particularly effective |
| COc1ccc([C@@H]2CC(=O)c3c(O)cc(O[C@@H]4O[C@H](CO[C@@H]5O[C@@H](C)[C@H](O)[C@@H](O)[C@H]5O)[C@@H](O)[C@H](O)[C@H]4O)cc3O2)cc1O [hesperidin] | 24.05 ± 5.06 percentage of control | 103.79 ± 6.37 percentage of control | 80.75 ± 4.18 percentage of control | inhibitory effects on rat liver CYP3A (in words) (CYP3A): particularly effective |
| O=c1c(O[C@@H]2O[C@H](CO)[C@@H](O)[C@H](O)[C@H]2O)c(-c2ccc(O)c(O)c2)oc2cc(O)cc(O)c12 [isoquercitrin] | 64.62 ± 1.53 percentage of control | 66.83 ± 5.03 percentage of control | – | CYP3A Activity (percentage of control) (CYP3A; inhibitor concentration 0.2, Table 1 Inhibition): 51.46 ± 6.68 percentage of control |
| O=c1c(O)c(-c2ccc(O)cc2)oc2cc(O)cc(O)c12 [kaempferol] | 73.03 ± 2.30 percentage of control | 76.57 ± 3.83 percentage of control | 80.11 ± 8.11 percentage of control | CYP3A Activity (percentage of control) (CYP3A; enhancer concentration 1.46, Table 2 Enhancement): 111.35 ± 27.88 percentage of control |
| O=c1c(O)c(-c2ccc(O)c(O)c2)oc2cc(O)cc(O)c12 [quercetin] | 75.76 ± 7.97 percentage of control | 77.52 ± 15.98 percentage of control | 91.62 ± 0.76 percentage of control | – |
| C[C@@H]1O[C@@H](Oc2c(-c3ccc(O)c(O)c3)oc3cc(O)cc(O)c3c2=O)[C@H](O)[C@H](O)[C@H]1O [quercitrin] | 55.06 ± 5.34 percentage of control | 73.56 ± 5.96 percentage of control | 98.67 ± 7.51 percentage of control | – |
| C=C[C@H]1[C@H](O[C@@H]2O[C@H](CO)[C@@H](O)[C@H](O)[C@H]2O)OC=C2C(=O)OCC[C@]21O [swertiamarin] | 79.71 ± 1.76 percentage of control | 67.88 ± 0.49 percentage of control | 65.63 ± 1.29 percentage of control | – |
| O=c1ccc2ccc(O)cc2o1 [umbelliferone] | 89.00 ± 12.02 percentage of control | 84.87 ± 6.93 percentage of control | 90.00 ± 4.20 percentage of control | CYP3A Activity (percentage of control) (CYP3A; inhibitor concentration 1.84, Table 1 Inhibition): 76.22 ± 2.73 percentage of control; CYP3A Activity (percentage of control) (CYP3A; inhibitor concentration 5.43, Table 1 Inhibition): 98.85 ± 14.19 percentage of control; CYP3A Activity (percentage of control) (CYP3A; inhibitor concentration 16.96, Table 1 Inhibition): 90.33 ± 1.63 percentage of control |
| O=c1cc(-c2ccccc2)oc2c1ccc1ccccc12 [α-Naphthoflavone] | – | – | – | CYP3A Activity (percentage of control) (CYP3A; inhibitor concentration 1.24, Table 1 Inhibition): 43.52 ± 2.93 percentage of control |
| CC1=CCC(C(C)(C)O)CC1 (stereo not drawn) [α-terpineol] | – | – | – | CYP3A Activity (percentage of control) (CYP3A; inhibitor concentration 501.93, Table 1 Inhibition): 9.29 ± 1.07 percentage of control |
| O=c1cc(-c2ccccc2)oc2ccc3ccccc3c12 [β-Naphthoflavone] | – | – | – | CYP3A Activity (percentage of control) (CYP3A; inhibitor concentration 0.87, Table 1 Inhibition): 42.41 ± 4.08 percentage of control |
| C=CC(=C)CCC=C(C)C [β-myrcene] | – | – | – | CYP3A Activity (percentage of control) (CYP3A; [5]): 55.95 ± 4.45 percentage of control; inhibitory effects on rat liver CYP3A (in words) (CYP3A): particularly effective |
| Luteolin-7-glycoside | – | 98.71 ± 19.74 percentage of control | – | CYP3A Activity (percentage of control) (CYP3A; enhancer concentration 0.004, Table 2 Enhancement): 122.89 ± 40.06 percentage of control; CYP3A Activity (percentage of control) (CYP3A; enhancer concentration 0.1, Table 2 Enhancement): 113.09 ± 5.99 percentage of control; CYP3A Activity (percentage of control) (CYP3A; inhibitor concentration 0.0078, Table 1 Inhibition): 46.68 ± 0.17 percentage of control; enhancing effects on rat hepatic CYP3A (in words) (CYP3A): particularly effective |
